Data reported in PMC9299640, “Incorporation of β‐Alanine in Cu(II) ATCUN Peptide Complexes Increases ROS Levels, DNA Cleavage and Antiproliferative Activity” (Chemistry (Weinheim an Der Bergstrasse, Germany), 2021).

Tests used:
[1] = tested on: SW480 (colon adenocarcinoma); test: Antiproliferative activity, sulforhodamine B (SRB) assay; format: cell-based, human; details: after treatment with 70 μM, 72 h
Description: (§1) The antiproliferative activity of selected Cu(II) ATCUN complexes was investigated towards different tumor cell lines (HCT116, NCI-H460, SiHa and SW480 cells) and expressed as the IC50 values.
(§2) Table S13. Accumulation of Cu in HCT116 cells after 24 h incubation with Cu-GGH, 1, 3, 4 and CuCl2 (70 µM) as determined by ICP-MS (n = 3), and cytotoxic activity in human cancer cell lines HCT116, NCI-H460, SiHa and SW480 expressed as the IC50 ± SD (in µM) as well as by the residual viable cells after treatment with 70 μM of the respective compound (%) as determined by the SRB assay (exposure time 72 h). accumulated Cu IC50 values […]
(§3) a – indicates no antiproliferative activity observed after treatment with the respective compound at 70 μM for 72 h.
(§4) S-12.1 Determination of IC50 values against HCT116, NCI-H460, SiHa and SW480 […]
(§5) HCT116, SW480 and NCI-H460 cells were supplied by ATCC, while SiHa cells were supplied by Dr. David Cowan, of the Ontario Cancer Institute, Canada. The cells were grown in α-MEM (Life Technologies) supplemented with 5% fetal calf serum (Moregate Biotech) at 37 °C in a humidified incubator with 5% CO2. […]
(§6) in 96-well plates and left to settle for 24 h. Compounds were added as water solutions to the plates in a series of 3-fold dilutions for 72 h before the assay was terminated by addition of 10% trichloroacetic acid (Merck Millipore) at 4 °C for 1 h. Cells were stained […]
(§7) with 0.4% sulforhodamine B (Sigma-Aldrich) in 1% acetic acid for 30 min in the dark at room temperature and then washed with 1% acetic acid to remove unbound dye. The stain was dissolved in unbuffered Tris base (10 mM, Serva) for 30 min on a plate shaker in the dark and quantified on a BioTek EL808 microplate reader at an absorbance of 490 nm with a reference wavelength of 450 nm to determine the percentage of cell-growth inhibition by determining the absorbance of each sample relative to a negative (no inhibitor) and a no-growth control (day 0). IC50 values were calculated with SigmaPlot 12.5 (Systat Software Inc.) using a three-parameter logistic sigmoidal dose−response curve between the calculated growth inhibition and the compound concentration. The presented IC50 values are the mean of at least three independent experiments, where 10 concentrations were tested in duplicate for each compound.
(§8) Ventures), by diluting with a matrix-matched solution with regard to HNO3 and Tm concentration, producing calibration standards with concentrations of 0.5, 1, 3, 5, 7, 10, […]
(§9) The measured Cu concentrations in the cell accumulation samples were in the range of 27–82 μg/L. The reported values are the means of at least three independent accumulation experiments conducted in triplicates with blank wells for each substance to account for unspecific binding of the Cu(II) complexes to the plastic of the well plates.
(§10) Accumulation values have been corrected by subtracting the average amount Cu determined in the cell-free wells.
(§11) Calibration curves for Cu were prepared with concentrations ranging from 0.5–100 µg/L. The limit of detection (LOD) was defined as 3 times the random error in the y-direction (Sy/x) of the calibration curve divided by the slope of the calibration curve. The limit of quantification (LOQ) was defined as 10 times the random error in the y-direction (Sy/x) of the calibration curve divided by the slope of the calibration curve.42 The LOD was determined for Cu as 1.8 μg/L and the LOQ was 5.95 μg/L.

[2] = tested on: NCI-H460 (non-small cell lung carcinoma); test: as above; format: cell-based, human; details: after treatment with 70 μM, 72 h
Description: as §1, §2, §3, §4, §5, §6, §7, §8, §9, §10, §11

[3] = tested on: SiHa (cervical carcinoma); test: as above; format: cell-based, human; details: after treatment with 70 μM, 72 h
Description: as §1, §2, §3, §4, §5, §6, §7, §8, §9, §10, §11

[4] = tested on: HCT116 (colorectal carcinoma); test: as above; format: cell-based, human; details: after treatment with 70 μM, 72 h
Description: as §1, §2, §3, §4, §5, §6, §7, §8, §9, §10, §11

[5] = pH 7.4, competitivity index (CI) method; cited from earlier work
Description: Table 1 CI values calculated at pH 7.4 for Cu(II) complexes 1–7 of peptides a–g (1 mM Cu(II), peptides L and virtual competitive ligand Z) based on respective stability constants. […] The high stability of Cu−GGH (CI7.4=12.4)[14] and the novel Cu(II) Gly2−ATCUN complexes 1 and 2 (CI7.4 13.61 and […], Table 1) by formation of 5,5,6‐chelates is assumed to be res ...

[6] = tested on: Ehrlich ascites tumor cells; details: cited from earlier work
From the text: Cowan et al. reported Cu(II) ATCUN complexes with anticancer, ‐viral, and ‐microbial activity as well as for DNA cleavage and enzyme inhibition.[3, 16, 17]

plasmid DNA pBR322 = details: 50 μM complex (Cu(II):peptide 1:1.25), pBR322 0.2 μg, MOPS 50 mM pH 7.4, ascH− 1 mM, 1 h, 37 °C; at least three experiments
Description: The influence of Gly2 and β‐Ala2 in the ATCUN motif of complexes 1–7 on the oxidative plasmid DNA cleavage activity was tested by means of gel electrophoresis. […] In Figure 3 the nuclease activity of in situ prepared 1–7, Cu−GGH and CuCl2 in the presence of ascH^− as reducing agent is shown (pH 7.4, 37 °C).
Figure 3 (Top) Nuclease activity towards plasmid DNA pBR322 (0.2 μg) of Cu(II) ATCUN complexes Cu−GGH, 1–7 (50 μM) and CuCl2 in MOPS buffer (50 mM, pH 7.4) in the presence of ascH^− (1 mM) after incubation for 1 h at 37 °C. Lane 1: DNA ladder (form I, II and III), lane 2: DNA reference, lanes 3–10 as indicated, lane 11: CuCl2. (Bottom) Visualization of the extent of DNA cleavage in percent. Error bars represent the standard deviation from at least three experiments.
A suitable concentration at which DNA forms II and III are visible, was determined to be 35 μM through a concentration‐dependent DNA cleavage experiment (S‐6.2, 0–50 μM).
All DNA cleavage experiments were
performed at least in triplicate in order to ensure reproducibility. The standard deviations
are represented as the error bars.
The in situ prepared complexes 1–7 (50 µM CuCl2 / 62.5 µM ligand, Cu(II):peptide = 1:1.25,
see S-4) and their corresponding ligands a–g (62.5 µM) were incubated with plasmid DNA […]
(form II), and linear (Form III) DNA were visualized by fluorescence imaging of […]

HCT116 cells = test: Cellular uptake of Cu by ICP-MS; format: cell-based, human; details: HCT116, 70 μM, 24 h
Description: We aimed to correlate the antiproliferative activity to the accumulation of Cu in HCT116 cells. Therefore, cells were treated for 24 h with complexes Cu−GGH, 1, 3, 4 and CuCl2 (70 μM), and the Cu content of the samples was determined by ICP‐MS (Table S13). […] The higher Cu contents probably lead to enhanced oxidative stress levels in cells, which consequently results in higher antiproliferative activity.
The antiproliferative activity of selected Cu(II) ATCUN complexes was investigated towards different tumor cell lines (HCT116, NCI-H460, SiHa and SW480 cells) and expressed as the IC50 values. Additionally, cellular uptake studies in HCT116 tumor cells were carried out and the amount of Cu was determined with inductively coupled plasma mass spectrometry (ICP-MS).
Table S13. […]
with 0.4% sulforhodamine B (Sigma-Aldrich) in 1% acetic acid for 30 min in the dark at room temperature and then washed with 1% acetic acid to remove unbound dye. The stain was dissolved in unbuffered Tris base (10 mM, Serva) for 30 min on a plate shaker in the dark and quantified on a BioTek EL808 microplate reader at an absorbance of 490 nm with a reference wavelength of 450 nm to determine the percentage of cell-growth inhibition by determining the absorbance of each sample relative to a negative (no inhibitor) and a no-growth control (day 0). […]

For “NH2−Gly−Gly−His−COOH [Cu−GGH, reference compound]”, the “residual viable cells SW480” value [1] was 73 ± 17%, the “residual viable cells NCI-H460” value [2] was 74 ± 9% and the “residual viable cells SiHa” value [3] was “– (indicates no antiproliferative activity observed after treatment with the respective compound at 70 μM for 72 h)”. The “residual viable cells HCT116” value [4] was 66 ± 21%, the “log K 7.4 / CI7.4 of Cu(II) complex” value [5] was 12.4 and the “antitumor effect in vivo (in words)” value [6] was “killed Ehrlich ascites tumor cells in vivo”. The “extent of DNA cleavage, form II” value (plasmid DNA pBR322) was ~90% and the “cellular uptake (accumulated Cu content), approximate values” (HCT116 cells) was ~0.3 μg Cu/4×10^5 cells.
